Results: patent publication US20240058299A1 (Humanetics Corporation, priority 2021, published 2024)
“Also recorded” adds a separate entry of the source.

Tests used:
[1] = tested on: NF-κB, pro-inflammatory cytokines (IL-1, IL-6, TNFα), pro-fibrotic proteins (TGFβ, MMP-2, MMP-9, LDH); conditions: literature reports; cited from earlier work
[2] = Solubility in pharmaceutically acceptable solvents; format: physicochemical; conditions: several pharmaceutically acceptable solvents
Description: The relative amount of genistein included in such a suspension can be varied to yield a formulation having a desired total content of genistein.

[3] = tested on: microHeart cells (human induced pluripotent stem cell-derived cardiac cells); experiment: Survival of irradiated microHeart cells by trypan blue staining; format: cell-based
Method: Cell survival was measured by trypan blue staining. The number of surviving cells 24 hours after irradiation is plotted. […] Cell survival was measured by trypan blue staining. The number of surviving cells 72 hours after irradiation is plotted.
Further studies using genistein were conducted in microHeart cells (StemoniX, Maple Grove, MN) exposed to different types of radiation. […] Cell survival was evaluated 24 hours after radiation exposure. […] Cell survival was evaluated 72 hours after radiation exposure. […] Moreover, since cell death causes the release of pro-inflammatory signals, protecting cells from death may reduce inflammation.

## O=c1c(-c2ccc(O)cc2)coc2cc(O)cc(O)c12 [genistein, 5,7-dihydroxy-3-(4-hydroxyphenyl)-4H-chromen-4-one]
[1]
  expression of NF-κB, pro-inflammatory cytokines and pro-fibrotic proteins: reduce expression
[2]
  solubility: low to virtually no solubility
[3]; 0.5 μM or 5 μM, 24 hours before 1 Gy γ-radiation, survival 24 hours after irradiation
  killing effect of γ-radiation (cell survival): the killing effect was mitigated by genistein; also recorded: Genistein treatment was radioprotective
[3]; 0.5 μM, 24 hours before 1 Gy mixed field radiation (˜32% neutron, −68% gamma), survival 72 hours after irradiation
  killing effect of mixed field radiation (cell survival): the killing effect was again mitigated by genistein; also recorded: genistein was radioprotective
